The results in this text go back to BindingDB's records for patent US10188615 (ACUCELA INC., 2019).

As a reminder, the IC50 is the point on the concentration scale where inhibition reaches its midpoint. Higher therefore signals a need for much substance.

This assay addresses T1, Retinoid isomerohydrolase (Human, UniProt Q16518).
T1 sequence (Q16518 whole entry): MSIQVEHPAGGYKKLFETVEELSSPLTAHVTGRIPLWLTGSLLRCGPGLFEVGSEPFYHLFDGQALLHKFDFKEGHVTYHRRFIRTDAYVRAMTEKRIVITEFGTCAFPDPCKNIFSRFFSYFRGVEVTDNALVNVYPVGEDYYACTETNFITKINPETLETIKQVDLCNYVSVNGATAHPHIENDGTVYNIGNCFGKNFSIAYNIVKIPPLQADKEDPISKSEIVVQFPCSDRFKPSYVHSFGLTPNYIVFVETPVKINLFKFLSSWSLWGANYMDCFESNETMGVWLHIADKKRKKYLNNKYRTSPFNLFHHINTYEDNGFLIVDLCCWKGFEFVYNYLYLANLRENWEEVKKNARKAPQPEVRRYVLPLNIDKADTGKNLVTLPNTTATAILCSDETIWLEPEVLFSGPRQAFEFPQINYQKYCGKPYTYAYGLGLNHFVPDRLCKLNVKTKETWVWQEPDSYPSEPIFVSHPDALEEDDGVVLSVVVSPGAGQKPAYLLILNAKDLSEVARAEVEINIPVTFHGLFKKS
Briefly: In Vitro Isomerase Inhibition Assay.
Consider `CCCCCOc1cccc(OCCN)c1` [US10188615, Example 90], for which the IC50 result was “in the range around 55 nM”. In the case of `NCCCc1cccc(OCc2c(Cl)cccc2Cl)c1` [US10188615, Example 91] it was “in the range around 550 nM”; in that of `COc1ccccc1COc1cccc(C(O)CCN)c1` (stereo not drawn) [US10188615, Example 92], “in the range around 55 nM”; in that of `NCCOc1cccc(OCC2CCCCCCC2)c1` [US10188615, Example 93], “in the range around 55 nM”. Consider `NCCOc1cccc(OCCCOCc2ccccc2)c1` [US10188615, Example 94], for which the half-inhibitory concentration (IC50) result was “in the range around 550 nM”. In the case of `NCCOc1cccc(OCCCO)c1` [US10188615, Example 95] it was “in the range around 5500 nM”; in that of `NCCCc1cccc(OCCCc2ccccc2)c1` [US10188615, Example 96], “in the range around 550 nM”. The entry for `NCCCc1cccc(OCCCO)c1` [US10188615, Example 98] is “in the range around 5500 nM”. The entry for `NCCCc1cccc(OCC2CCCCCCC2)c1` [US10188615, Example 99] is “in the range around 550 nM”. As for `NCCOc1cccc(OCCCCOCc2ccccc2)c1` [US10188615, Example 100], the IC50 entry is “in the range around 5500 nM”. Consider `COc1ccccc1COc1cccc(OCCN)c1` [US10188615, Example 101], for which the concentration for half-maximal inhibition (IC50) result is “in the range around 550 nM”. The entry for `NCCCc1cccc(OCCOCc2ccccc2)c1` [US10188615, Example 102] is “in the range around 550 nM”; for `NCCCc1cccc(OCC2CCCC2)c1` [US10188615, Example 103] it is “in the range around 55 nM”. In the case of `NCCOc1cccc(OCC2CCCC2)c1` [US10188615, Example 104] it was “in the range around 55 nM”; in that of `NCCC(O)c1cccc(OCc2c(Cl)cccc2Cl)c1` (stereo not drawn) [US10188615, Example 105], “in the range around 55 nM”.

For the molecule `NCCC(O)c1cccc(OCC2CCCCCCC2)c1` (stereo not drawn) [US10188615, Example 106], the IC50 entry is “in the range around 55 nM”. In the case of `CC(C)CCOc1cccc(C(O)CCN)c1` (stereo not drawn) [US10188615, Example 107], the 50% inhibitory concentration (IC50) entry is “in the range around 55 nM”. In the case of `COCCCOc1cccc(C(O)CCN)c1` (stereo not drawn) [US10188615, Example 108] it was “in the range around 55 nM”; in that of `NCCC(O)c1cccc(OCCO)c1` (stereo not drawn) [US10188615, Example 109], “in the range around 5500 nM”; in that of `COCCOc1cccc(OCCN)c1` [US10188615, Example 113], “in the range around 5500 nM”. In the case of `NCCC(O)c1cccc(OCCCCOCc2ccccc2)c1` (stereo not drawn) [US10188615, Example 114] it was “in the range around 55 nM”; in that of `NCCC(O)c1cccc(OCCCCCOCc2ccccc2)c1` (stereo not drawn) [US10188615, Example 115], “in the range around 55 nM”; in that of `NCCCc1cccc(OCc2nccs2)c1` [US10188615, Example 122], “in the range around 550 nM”. In the case of `NCCSc1cccc(OCC2CCCCC2)c1` [US10188615, Example 123], the IC50 result is “in the range around 55 nM”.

For `NCC[S+]([O-])c1cccc(OCC2CCCCC2)c1` (stereo not drawn) [US10188615, Example 124], the IC50 entry is “in the range around 550 nM”. The entry for `NCCS(=O)(=O)c1cccc(OCC2CCCCC2)c1` [US10188615, Example 125] is “in the range around 550 nM”.

For `NCC/C(=N\N)c1cccc(OCC2CCCCC2)c1` [US10188615, Example 126], the 50% inhibitory concentration (IC50) result is “in the range around 550 nM”.

As to `NCC(O)c1cccc(OCC2CCCCC2)c1` (stereo not drawn) [US10188615, Example 127], the IC50 entry was “in the range around 550 nM”. On to `CN(CCN)c1cccc(OCC2CCCCC2)c1` [US10188615, Example 128], for which the IC50 result was “in the range around 5500 nM”. For the molecule `NCCNc1cccc(OCC2CCCCC2)c1` [US10188615, Example 129], the half-maximal inhibitory concentration (IC50) result was “in the range around 550 nM”. The entry for `N=C(N)CC(O)c1cccc(OCC2CCCCC2)c1` (stereo not drawn) [US10188615, Example 130] is “in the range around 55 nM”.

In the case of `NCCC(O)c1cccc(OCCCOCc2ccccc2)c1` (stereo not drawn) [US10188615, Example 131], the IC50 entry was “in the range around 55 nM”. In the case of `CNC(=O)CCCOc1cccc(OCCN)c1` [US10188615, Example 133] it was “in the range around 5500 nM”.

Take `NCCOc1cccc(OCCCCCOCc2ccccc2)c1` [US10188615, Example 134]: the IC50 entry was “in the range around 5500 nM”. Turning to `NCCCc1cccc(OCC2(O)CCCCCCC2)c1` [US10188615, Example 135], the IC50 entry is “in the range around 550 nM”. The entry for `NCCCc1cccc(OCCCCCOCc2ccccc2)c1` [US10188615, Example 136] is “in the range around 5500 nM”; for `Cc1cccc(C)c1COc1cccc(CCCN)c1` [US10188615, Example 137] it is “in the range around 5500 nM”. The entry for `CN(C)C(=O)CCCOc1cccc(OCCN)c1` [US10188615, Example 138] is “in the range around 5500 nM”; for `NCCOc1cccc(OCC2(O)CCCCCCC2)c1` [US10188615, Example 139] it is “in the range around 550 nM”; for `Cc1cccc(C)c1COc1cccc(OCCN)c1` [US10188615, Example 140] it is “in the range around 550 nM”. In the case of `NCCCc1cc(CO)cc(OCC2CCCCC2)c1` [US10188615, Example 142] it was “in the range around 5500 nM”; in that of `NCCOc1cccc(OCCCCCO)c1` [US10188615, Example 143], “in the range around 550 nM”. For `NCCOc1cccc(OCCCC(N)=O)c1` [US10188615, Example 144], the IC50 result is “in the range around 5500 nM”. In the case of `NCCOc1cccc(OCC(O)c2ccccc2)c1` (stereo not drawn) [US10188615, Example 145] it was “in the range around 5500 nM”.

With `NCCC(O)c1cc(OCC2CCCCC2)ccc1Br` (stereo not drawn) [US10188615, Example 146], the IC50 result was “in the range around 5500 nM”.

Consider `NCCC(O)c1cccc(OCCCC(N)=O)c1` (stereo not drawn) [US10188615, Example 149], for which the half-inhibitory concentration (IC50) result was “in the range around 5500 nM”. In the case of `NCCCc1cccc(OCC(O)c2ccccc2)c1` (stereo not drawn) [US10188615, Example 150] it was “in the range around 550 nM”. For `NCCCc1cccc(OCCCCCO)c1` [US10188615, Example 151], the IC50 result was “in the range around 550 nM”. Turning to `CC(C)C(O)COc1cccc(CCCN)c1` (stereo not drawn) [US10188615, Example 152], the IC50 result was “in the range around 550 nM”.

Turning to `CC(C)C(O)COc1cccc(OCCN)c1` (stereo not drawn) [US10188615, Example 153], the concentration for half-maximal inhibition (IC50) entry was “in the range around 550 nM”. In the case of `Cc1cc(OCCN)cc(OCC2CCCCC2)c1` [US10188615, Example 154] it was “in the range around 55 nM”. For `NCCOc1cccc(OCCCCO)c1` [US10188615, Example 156], the IC50 entry is “in the range around 550 nM”. Consider `CN(C)C(=O)CCCOc1cccc(C(O)CCN)c1` (stereo not drawn) [US10188615, Example 157], for which the half-inhibitory concentration (IC50) result is “in the range around 550 nM”.

As to `CC(C)C(O)COc1cccc(C(O)CCN)c1` (stereo not drawn) [US10188615, Example 158], the IC50 result is “in the range around 55 nM”. With `CCCC(O)COc1cccc(OCCN)c1` (stereo not drawn) [US10188615, Example 159], the half-maximal inhibitory concentration (IC50) entry is “in the range around 5500 nM”. In the case of `Cc1ccc(OCC2CCCCC2)cc1OCCN` [US10188615, Example 160] it was “in the range around 5500 nM”. On to `NCCC(O)c1cccc(OCC(O)c2ccccc2)c1` (stereo not drawn) [US10188615, Example 161], for which the IC50 result is “in the range around 55 nM”.

`NCCCc1cccc(OCC2CCCCO2)c1` (stereo not drawn) [US10188615, Example 162]: the IC50 result was “in the range around 550 nM”. In the case of `CCCC(O)COc1cccc(C(O)CCN)c1` (stereo not drawn) [US10188615, Example 163] it was “in the range around 55 nM”; in that of `Cc1c(OCCN)cccc1OCC1CCCCC1` [US10188615, Example 164], “in the range around 550 nM”. The entry for `NCCC(O)c1cccc(OCCCCO)c1` (stereo not drawn) [US10188615, Example 165] is “in the range around 550 nM”. With `NCCC(O)c1cccc(OCCCCCO)c1` (stereo not drawn) [US10188615, Example 166], the IC50 result was “in the range around 55 nM”. The entry for `CCCC(O)COc1cccc(CCCN)c1` (stereo not drawn) [US10188615, Example 167] is “in the range around 550 nM”.

`NCCCc1cc(F)cc(OCC2CCCCC2)c1` [US10188615, Example 168]: the IC50 result is “in the range around 550 nM”. The entry for `CC(=O)O[C@@H]1CCCC[C@H]1COc1cccc([C@H](O)CCN)c1` [US10188615, Example 173] is “in the range around 55 nM”; for `CC(=O)O[C@@H]1CCCC[C@@H]1COc1cccc([C@H](O)CCN)c1` [US10188615, Example 174] it is “in the range around 55 nM”; for `NC[C@H](O)[C@@H](O)c1cccc(OCC2CCCCC2)c1` [US10188615, Example 177] it is 100 to 1000 nM. The entry for `NCC[C@@H](O)c1cc(O)cc(OCC2CCCCC2)c1` [US10188615, Example 179] is “in the range around 55 nM”.
